Test results reported in article PMC9234961 (Journal of Medicinal Chemistry, 2022).
Where two headings read alike, the source gives them in different places.

Key:
kinases (468) [1] = target: kinases (468) (Homo sapiens, UniProt P15735); conditions: PHKG2; 1000 nM
kinases (468) [2] = target: kinases (468) (Homo sapiens, UniProt P00519, Y253F); conditions: ABL1(Y253F)-phosphorylated; 1000 nM
kinases (468) [3] = target: kinases (468) (Homo sapiens, UniProt P33981); conditions: kinase TTK (Entrez TTK); compound concentration 1000 nM
kinases (468) [4] = target: kinases (468) (Homo sapiens, UniProt P31152); conditions: ERK4 (MAPK4); 1000 nM
kinases (468) [5] = target: kinases (468) (Homo sapiens, UniProt P36888, K663Q); conditions: FLT3(K663Q); 1000 nM
kinases (468) [6] = target: kinases (468) (Homo sapiens, UniProt P57058); conditions: HUNK; 1000 nM
kinases (468) [7] = target: kinases (468) (Homo sapiens, UniProt P42338); conditions: PIK3CB; 1000 nM
kinases (468) [8] = target: kinases (468) (Homo sapiens, UniProt Q96RR4); conditions: CAMKK2; 1000 nM
kinases (468) [9] = target: kinases (468) (Homo sapiens, UniProt P80192); conditions: MLK1 (MAP3K9); 1000 nM
kinases (468) [10] = target: kinases (468) (Mycobacterium tuberculosis, UniProt P9WI81); conditions: PKNB(M.tuberculosis) (pknB); 1000 nM
kinases (468) [11] = target: kinases (468) (Homo sapiens, UniProt O14578); conditions: CIT; 1000 nM
kinases (468) [12] = target: kinases (468) (Homo sapiens, UniProt P00533, G719S); conditions: EGFR(G719S); 1000 nM
kinases (468) [13] = target: kinases (468) (Homo sapiens, UniProt Q9H422); conditions: HIPK3; 1000 nM
kinases (468) [14] = target: kinases (468) (Homo sapiens, UniProt Q9Y6R4); conditions: MAP3K4; 1000 nM
kinases (468) [15] = target: kinases (468) (Homo sapiens, UniProt Q9UHD2); conditions: kinase TBK1 (Entrez TBK1); compound concentration 1000 nM
kinases (468) [16] = target: kinases (468) (Homo sapiens, UniProt P10721, D816H); conditions: KIT(D816H); 1000 nM
kinases (468) [17] = target: kinases (468) (Homo sapiens, UniProt P30291); conditions: kinase WEE1 (Entrez WEE1); compound concentration 1000 nM
kinases (468) [18] = target: kinases (468) (Homo sapiens, UniProt O15264); conditions: p38-delta (MAPK13); 1000 nM
kinases (468) [19] = target: kinases (468) (Homo sapiens, UniProt Q9H2X6); conditions: HIPK2; 1000 nM
kinases (468) [20] = target: kinases (468) (Homo sapiens, UniProt O00141); conditions: kinase SGK (Entrez SGK1); compound concentration 1000 nM
kinases (468) [21] = target: kinases (468) (Homo sapiens, UniProt P04049); conditions: RAF1; 1000 nM
kinases (468) [22] = target: kinases (468) (Homo sapiens, UniProt P23458); conditions: 1000 nM
kinases (468) [23] = target: kinases (468) (Homo sapiens, UniProt P22607, G697C); conditions: FGFR3(G697C); 1000 nM
kinases (468) [24] = target: kinases (468) (Homo sapiens, UniProt Q14289); conditions: PYK2 (PTK2B); 1000 nM
kinases (468) [25] = target: kinases (468) (Homo sapiens, UniProt Q08345); conditions: DDR1; 1000 nM
kinases (468) [26] = target: kinases (468) (Homo sapiens, UniProt P06213); conditions: INSR; 1000 nM
kinases (468) [27] = target: kinases (468) (Homo sapiens, UniProt P42336, H1047Y); conditions: PIK3CA(H1047Y); 1000 nM
kinases (468) [28] = target: kinases (468) (Homo sapiens, UniProt Q96GD4); conditions: AURKB; 1000 nM
kinases (468) [29] = target: kinases (468) (Homo sapiens, UniProt Q13164); conditions: ERK5 (MAPK7); 1000 nM
kinases (468) [30] = target: kinases (468) (Homo sapiens, UniProt P04626); conditions: ERBB2; 1000 nM
kinases (468) [31] = target: kinases (468) (Homo sapiens, UniProt O43293); conditions: DAPK3; 1000 nM
kinases (468) [32] = target: kinases (468) (Homo sapiens, UniProt Q07002); conditions: PCTK3 (CDK18); 1000 nM
kinases (468) [33] = target: kinases (468) (Homo sapiens, UniProt Q04759); conditions: PRKCQ; 1000 nM
kinases (468) [34] = target: kinases (468) (Homo sapiens, UniProt P00533, DEL746-750); conditions: EGFR(E746-A750del); 1000 nM

kinases (468) (Homo sapiens, UniProt P23458), sequence (P23458 whole entry): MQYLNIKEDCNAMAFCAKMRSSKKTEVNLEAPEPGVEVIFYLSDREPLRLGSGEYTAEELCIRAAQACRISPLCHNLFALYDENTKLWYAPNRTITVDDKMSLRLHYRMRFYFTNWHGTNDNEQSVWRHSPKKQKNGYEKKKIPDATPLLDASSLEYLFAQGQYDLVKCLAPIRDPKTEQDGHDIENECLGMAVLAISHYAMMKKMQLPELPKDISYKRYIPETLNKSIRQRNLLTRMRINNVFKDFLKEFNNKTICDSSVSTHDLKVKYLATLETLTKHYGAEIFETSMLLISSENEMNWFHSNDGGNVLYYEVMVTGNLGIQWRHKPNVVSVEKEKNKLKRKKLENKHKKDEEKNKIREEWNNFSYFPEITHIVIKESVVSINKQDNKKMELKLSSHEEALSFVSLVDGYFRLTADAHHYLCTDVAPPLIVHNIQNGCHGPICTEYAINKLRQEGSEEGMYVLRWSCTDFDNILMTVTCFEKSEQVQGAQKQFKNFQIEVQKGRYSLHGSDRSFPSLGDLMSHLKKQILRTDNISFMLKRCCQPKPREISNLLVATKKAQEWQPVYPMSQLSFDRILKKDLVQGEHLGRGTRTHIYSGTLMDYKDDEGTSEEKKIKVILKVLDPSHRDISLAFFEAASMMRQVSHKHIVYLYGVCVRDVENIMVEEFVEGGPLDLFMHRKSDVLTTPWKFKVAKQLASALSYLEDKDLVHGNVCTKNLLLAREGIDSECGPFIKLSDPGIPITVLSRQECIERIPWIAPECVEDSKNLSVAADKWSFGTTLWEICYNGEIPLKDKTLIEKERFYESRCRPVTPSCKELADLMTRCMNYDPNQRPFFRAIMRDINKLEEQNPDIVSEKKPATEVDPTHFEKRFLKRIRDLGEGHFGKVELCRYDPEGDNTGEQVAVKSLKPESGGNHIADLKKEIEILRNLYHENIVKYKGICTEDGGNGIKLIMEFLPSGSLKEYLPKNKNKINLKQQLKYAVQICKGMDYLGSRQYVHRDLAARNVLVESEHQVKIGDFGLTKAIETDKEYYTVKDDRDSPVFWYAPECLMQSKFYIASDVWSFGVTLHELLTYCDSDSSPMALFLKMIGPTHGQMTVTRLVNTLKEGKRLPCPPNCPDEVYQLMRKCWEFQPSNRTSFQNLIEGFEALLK
kinases (468) (Homo sapiens, UniProt Q07002), sequence (Q07002 whole entry): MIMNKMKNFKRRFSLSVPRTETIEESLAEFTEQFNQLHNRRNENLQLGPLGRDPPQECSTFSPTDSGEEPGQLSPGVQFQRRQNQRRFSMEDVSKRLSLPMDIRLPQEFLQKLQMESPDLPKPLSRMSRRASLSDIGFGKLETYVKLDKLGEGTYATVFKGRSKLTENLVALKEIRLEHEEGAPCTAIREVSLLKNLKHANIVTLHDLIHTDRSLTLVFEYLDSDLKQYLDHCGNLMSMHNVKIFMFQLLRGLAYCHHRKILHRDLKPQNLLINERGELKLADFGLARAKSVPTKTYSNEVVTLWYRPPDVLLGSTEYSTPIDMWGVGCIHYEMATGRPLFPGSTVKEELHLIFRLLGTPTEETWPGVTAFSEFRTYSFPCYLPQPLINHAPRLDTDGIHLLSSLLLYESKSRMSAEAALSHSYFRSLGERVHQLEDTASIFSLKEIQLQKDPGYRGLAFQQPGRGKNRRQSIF
kinases (468) (Homo sapiens, UniProt O43293), sequence (O43293 whole entry): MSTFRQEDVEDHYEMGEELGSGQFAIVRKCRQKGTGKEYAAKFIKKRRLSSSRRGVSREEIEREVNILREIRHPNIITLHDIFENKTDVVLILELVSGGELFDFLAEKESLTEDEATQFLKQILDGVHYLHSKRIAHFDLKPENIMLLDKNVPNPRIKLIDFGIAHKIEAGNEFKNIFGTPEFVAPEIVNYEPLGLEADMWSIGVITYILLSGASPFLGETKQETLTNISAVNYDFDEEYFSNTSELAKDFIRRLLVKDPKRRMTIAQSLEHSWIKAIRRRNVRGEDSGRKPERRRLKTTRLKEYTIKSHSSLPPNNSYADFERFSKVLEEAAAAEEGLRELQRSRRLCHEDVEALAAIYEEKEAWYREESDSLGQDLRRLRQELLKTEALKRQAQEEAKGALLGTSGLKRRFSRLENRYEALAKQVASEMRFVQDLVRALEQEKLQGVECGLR
kinases (468) (Homo sapiens, UniProt Q14289), sequence (Q14289 whole entry): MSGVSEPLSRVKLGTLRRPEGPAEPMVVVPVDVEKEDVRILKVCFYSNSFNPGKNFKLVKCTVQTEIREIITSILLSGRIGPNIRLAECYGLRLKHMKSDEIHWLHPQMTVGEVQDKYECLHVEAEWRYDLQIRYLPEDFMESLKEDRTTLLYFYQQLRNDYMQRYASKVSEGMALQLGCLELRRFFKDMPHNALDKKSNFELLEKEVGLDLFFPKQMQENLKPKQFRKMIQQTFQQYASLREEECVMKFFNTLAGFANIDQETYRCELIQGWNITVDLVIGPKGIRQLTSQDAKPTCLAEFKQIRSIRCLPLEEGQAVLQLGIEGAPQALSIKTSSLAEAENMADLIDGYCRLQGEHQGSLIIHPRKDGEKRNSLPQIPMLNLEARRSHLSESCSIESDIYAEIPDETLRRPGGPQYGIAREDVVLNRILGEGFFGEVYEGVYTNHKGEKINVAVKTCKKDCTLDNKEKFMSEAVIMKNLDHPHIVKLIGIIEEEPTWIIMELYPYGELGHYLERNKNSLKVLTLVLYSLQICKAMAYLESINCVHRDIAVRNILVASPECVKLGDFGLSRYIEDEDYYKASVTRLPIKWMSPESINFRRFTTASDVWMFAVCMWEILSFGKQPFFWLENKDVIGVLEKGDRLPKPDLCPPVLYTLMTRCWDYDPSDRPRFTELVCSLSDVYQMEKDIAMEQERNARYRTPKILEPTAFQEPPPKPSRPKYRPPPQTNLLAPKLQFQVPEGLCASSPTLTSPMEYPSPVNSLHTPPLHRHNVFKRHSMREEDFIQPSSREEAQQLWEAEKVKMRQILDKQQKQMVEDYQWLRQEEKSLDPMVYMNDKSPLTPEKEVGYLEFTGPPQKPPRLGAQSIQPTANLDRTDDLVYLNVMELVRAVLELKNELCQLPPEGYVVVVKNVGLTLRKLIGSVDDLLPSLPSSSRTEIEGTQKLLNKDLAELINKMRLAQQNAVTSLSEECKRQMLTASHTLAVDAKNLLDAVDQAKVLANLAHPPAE
kinases (468) (Homo sapiens, UniProt P06213), sequence (P06213 28-1382): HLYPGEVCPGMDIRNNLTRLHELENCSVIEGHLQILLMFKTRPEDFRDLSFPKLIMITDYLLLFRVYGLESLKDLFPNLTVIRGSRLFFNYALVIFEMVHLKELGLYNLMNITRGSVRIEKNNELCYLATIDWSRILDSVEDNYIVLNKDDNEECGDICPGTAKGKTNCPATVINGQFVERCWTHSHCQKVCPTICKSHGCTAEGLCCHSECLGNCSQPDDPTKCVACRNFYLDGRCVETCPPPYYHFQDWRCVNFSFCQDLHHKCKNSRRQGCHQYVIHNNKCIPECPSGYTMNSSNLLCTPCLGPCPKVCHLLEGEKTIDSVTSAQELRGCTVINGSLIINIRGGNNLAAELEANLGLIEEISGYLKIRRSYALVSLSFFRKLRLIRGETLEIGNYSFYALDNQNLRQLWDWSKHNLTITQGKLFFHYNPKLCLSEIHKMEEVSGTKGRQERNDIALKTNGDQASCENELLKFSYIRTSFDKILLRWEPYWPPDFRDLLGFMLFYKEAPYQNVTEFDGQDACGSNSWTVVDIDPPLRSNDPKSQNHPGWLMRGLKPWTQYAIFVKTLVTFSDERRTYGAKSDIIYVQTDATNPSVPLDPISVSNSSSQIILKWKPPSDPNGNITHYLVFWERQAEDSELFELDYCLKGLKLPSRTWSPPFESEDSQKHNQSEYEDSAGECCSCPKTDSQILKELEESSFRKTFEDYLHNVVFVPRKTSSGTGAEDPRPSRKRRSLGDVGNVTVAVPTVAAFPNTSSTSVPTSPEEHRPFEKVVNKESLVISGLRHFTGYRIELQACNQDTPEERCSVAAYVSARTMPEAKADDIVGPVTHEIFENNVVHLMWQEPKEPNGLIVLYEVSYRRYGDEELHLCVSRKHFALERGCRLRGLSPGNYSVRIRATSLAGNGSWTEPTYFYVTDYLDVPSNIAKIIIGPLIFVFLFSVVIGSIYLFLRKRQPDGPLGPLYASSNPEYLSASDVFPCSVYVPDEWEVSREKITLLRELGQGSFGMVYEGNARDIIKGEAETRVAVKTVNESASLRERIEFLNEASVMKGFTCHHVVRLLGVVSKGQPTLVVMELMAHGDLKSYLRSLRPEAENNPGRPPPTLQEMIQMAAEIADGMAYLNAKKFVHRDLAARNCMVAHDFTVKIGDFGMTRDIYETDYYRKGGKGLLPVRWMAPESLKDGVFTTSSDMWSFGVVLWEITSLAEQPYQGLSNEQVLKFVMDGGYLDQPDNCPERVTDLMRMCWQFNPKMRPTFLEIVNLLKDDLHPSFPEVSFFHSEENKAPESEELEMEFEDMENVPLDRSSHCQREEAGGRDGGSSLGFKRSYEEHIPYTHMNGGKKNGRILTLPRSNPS
kinases (468) (Homo sapiens, UniProt Q96GD4), sequence (Q96GD4 whole entry): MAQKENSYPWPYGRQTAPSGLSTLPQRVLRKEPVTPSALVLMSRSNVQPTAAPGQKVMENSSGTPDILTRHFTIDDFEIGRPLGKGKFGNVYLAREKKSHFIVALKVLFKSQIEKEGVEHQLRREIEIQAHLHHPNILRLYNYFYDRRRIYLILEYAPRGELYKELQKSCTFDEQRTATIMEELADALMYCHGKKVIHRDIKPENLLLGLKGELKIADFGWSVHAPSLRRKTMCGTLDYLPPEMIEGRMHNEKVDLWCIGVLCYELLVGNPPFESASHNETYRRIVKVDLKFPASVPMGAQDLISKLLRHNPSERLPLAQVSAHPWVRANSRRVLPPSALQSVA

Compound: C[C@H]1C[C@@H](O)CN(c2ncc(Cl)c(Nc3ccc4c(c3)c3c(c(=O)n4C)OCC(F)(F)[C@H](C4CC4)N3)n2)C1 [CCT373566_9A]
- Percent Control (kinases (468) [1]): 100%
- Percent Control (kinases (468) [2]): 91%
- Percent Control (kinases (468) [3]): 91%
- Percent Control (kinases (468) [4]): 100%
- Percent Control (kinases (468) [5]): 97%
- Percent Control (kinases (468) [6]): 100%
- Percent Control (kinases (468) [7]): 85%
- Percent Control (kinases (468) [8]): 88%
- Percent Control (kinases (468) [9]): 100%
- Percent Control (kinases (468) [10]): 100%
- Percent Control (kinases (468) [11]): 99%
- Percent Control (kinases (468) [12]): 100%
- Percent Control (kinases (468) [13]): 100%
- Percent Control (kinases (468) [14]): 100%
- Percent Control (kinases (468) [15]): 100%
- Percent Control (kinases (468) [16]): 87%
- Percent Control (kinases (468) [17]): 89%
- Percent Control (kinases (468) [18]): 94%
- Percent Control (kinases (468) [19]): 100%
- Percent Control (kinases (468) [20]): 98%
- Percent Control (kinases (468) [21]): 92%
- Percent Control (kinases (468) [22]; JAK1(JH1domain-catalytic)): 100%
- Percent Control (kinases (468) [22]; JAK1(JH2domain-pseudokinase)): 90%
- Percent Control (kinases (468) [23]): 99%
- Percent Control (kinases (468) [24]): 98%
- Percent Control (kinases (468) [25]): 100%
- Percent Control (kinases (468) [26]): 98%
- Percent Control (kinases (468) [27]): 94%
- Percent Control (kinases (468) [28]): 92%
- Percent Control (kinases (468) [29]): 97%
- Percent Control (kinases (468) [30]): 94%
- Percent Control (kinases (468) [31]): 100%
- Percent Control (kinases (468) [32]): 99%
- Percent Control (kinases (468) [33]): 100%
- Percent Control (kinases (468) [34]): 100%
